Experimental data as given in patent US20250123282A1, “METHODS FOR EVALUATION AND TREATMENT OF TYROSINE KINASE INHIBITOR (TKI)-RESISTANT ACUTE MYELOID LEUKEMIA” (LOMA LINDA UNIVERSITY, priority 2021, published 2025).

How the values were obtained:
[1] = tested on: MV4-11 blasts; test: GILT combined with MIF inhibitor or CXCR2 inhibitor on MV4-11 blasts in vitro (FACS); assay type: cell-based, human; settings: for most effective dose on MV4-11 based on the FACS analyses: dose-dependent experiments with or without 80 nM GILT
Experimental: (§1) Whether targeting the MIF-CXCR2 signaling pathway would effectively treat AML blasts were investigated. First, the combination of GILT with ribosomal protein S19 (RPS19) on MV4-11 blasts was tested in vitro. RPS19, a MIF inhibitor, has been reported to suppress cisplatin-activated MIF-CD74-NFκB signaling pathway in acute kidney injury. […] The combination of 80 nM GILT with 50 uM SB225002, a CXCR2-inhibitor (CXCR2-I) on MV4-11 blasts in vitro were examined. […] The anti-leukemic effect of combining GILT with CXCR2-I on primary BMMNC ex vivo were examined. […] There may be alternative cytokine pathways compensating for the defect of MIF-CXCR2 pathways.
(§2) For MIF in vitro experiments, different doses of MIF were added to 1 ml of 1×10^6 MV4-11 cells or RAW264.7 cells for each experimental group in 24-well plates. Two days after the one dose treatment, cells were then collected for either analyses by FACS and qPCR. As combination agents to treat blasts in vitro or ex vivo, one dose of 80 nM GILT with one dose of different inhibitors were added to 1 ml of 1×10^6 MV4-11 cells or 1 ml of 0.5-1×10^6 primary AML BMMNC for each experimental group in 24-well plates. Dose-dependent experiments of CXCR2 inhibitor and NFκB inhibitor with or without 80 nM GILT were performed. […] Three days after the one dose treatment, cells were then collected for either analyses by FACS and qPCR.
(§3) Flow Cytometry (FACS). Cells were harvested and examined for the expression of cell surface biomarkers (CD) and intracellular proteins by multichromatic FACS as previously described. About 1×10^4˜10^6 cells in 100 μl FACS buffer (PBS containing 1% FBS and 0.05% sodium azide) were stained with various fluorescence-conjugated antibodies specific for the desired cell surface proteins at 4° C. for 30 min. The surface-stained cells were then fixed and permeabilized using the appropriate reagents (e.g. the BD Pharmingen Cytofix/Cytoperm buffer) and stained with different fluorescence-conjugated antibodies specific for the desired intracellular proteins at 4° C. for 2 hours in the permeabilizing buffer (e.g. the BD Perm/Wash buffer). Concentrations of the Abs were used per the manufacturers' recommendations. Finally, the cells were washed twice in the permeabilizing buffer and twice in the FACS buffer before being analyzed on the BD FACSAria II. Data was analyzed using the FlowJo software (Tree Star Inc., Ashland, OR).

[2] = tested on: primary AML BMMNC; test: Ex vivo combination treatment of primary AML BMMNC (FACS, imaging, qPCR); assay type: cell-based, human; settings: 80 nM GILT
Experimental: as §1
The combination of 80 nM GILT and 50 uM BAY11-7821 (a NFκB-I) was tested as a novel therapeutic approach for AML.
Next, the anti-leukemic effect of the combination was examined on primary BMMNC from refractory AML patients (Patient #7, Table 4).
Human Samples. AML bone marrow (BM) mononuclear cells (BMMNC) (Patients #1-7, Table 4) were obtained from the City of Hope National Medical Center (COHNMC). All donor patients signed an informed consent form. Sample acquisition was approved by the Institutional Review Boards at the LLUMC and the COHNMC in accordance with an assurance filed with and approved by the Department of Health and Human Services, and it met all requirements of the Declaration of Helsinki.
as §2, §3
RNA Isolation and Real-Time Polymerase Chain Reaction (qPCR) analysis. MV4-11 and MOLM-14 cells were cultured with the presence of TKI drugs for 72 hours or re-plated 28 days after the treatment of TKI drugs. Cells were isolated for RNA isolation and qPCR analysis as previously described. Total RNA was isolated using the RNeasy Micro Kit (Qiagen) according to the manufacturer's instruction. First-strand cDNA was synthesized using the SuperScript III Reverse Transcriptase (Invitrogen; Life Technologies). With an Applied Biosystems 7900HT Real-Time PCR machine, qPCR was performed and analyzed using known primers for the specific markers. The PCR conditions were 10 minutes at 95° C. followed by 40 cycles of 10 seconds at 95° C. and 15 seconds at 60° C. The relative expression level of a gene was determined using the ΔΔCt method and normalized to GAPDH.

[3] = tested on: MV4-11; settings: 100 nM, cited from earlier work
[4] = tested on: MV4-11 cells; test: FACS time course of CD44+pBAD+ and Ki67+CD33+CD44+ populations in TKI-treated MV4-11; assay type: cell-based, human
Text: (§4) To follow the cell fate of TKI-treated MV4-11 and MOLM-14, culturing of blasts were continued by performing medium change every 2-3 days. […] The BAD protein is a pro-apoptotic member of the BCL-2 gene family, which is involved in initiating apoptosis. Dephosphorylated BAD is pro-apoptotic by binding BCL-2 and inactivating BCL-2, while phosphorylated BAD (pBAD) is anti-apoptotic by leaving BCL-2 free to inhibit BAX-triggered apoptosis.
(§5) Small Molecular Inhibitors and in vitro & ex vivo Treatment. […] The dose of 80 nM for the four TKIs was selected based on their dose-dependent cytotoxicity in previous reports. […] Both GILT and QUIZ were reported to start to suppress the tumorigenic clustering and c-Kit at the dose of 80 nM. […] The combination of 5 μM 5-Azacitidine (AZA) and 80 nM 1α,25-Dihydroxyvitamin D3 (VD3) was added to the experimental group similar to the previous report. As combination agents to treat blasts in vitro, one dose of 80 nM GILT with one dose of either 100 nM Venetoclax (BCL2 inhibitor), 10 μM (R)-Lisofylline (STAT4 inhibitor), 100 nM AZD1208 (PIM inhibitor), 500 nM PF-06826647 (TYK2 inhibitor), or 500 nM AT9283 (JAK2/3 inhibitor) were added to 1 ml of 1×10^6 cells for each experimental group in 24 well plates. Three days after the one dose treatment, cells were then collected for either analyses by FACS and qPCR, or re-plated into 24 well plates for continued culture. At different time points, re-plated cells were collected for analyses by FACS and qPCR. Medium change was performed every 2-3 days.
as §3

[5] = tested on: MOLM-14 cells; test: Phase-bright imaging of re-growth of TKI-treated MOLM-14; assay type: cell-based, human; settings: 10 days after TKI treatment
Text: as §4
as §5, with “At different time points, re-plated cells were collected for analyses by FACS and qPCR. Medium change was performed every 2-3 days.” left out

[6] = tested on: MV4-11 cells; test: Phase-bright imaging of re-growth of TKI-treated MV4-11; assay type: cell-based, human
Text: as §4, §5
Imaging Acquisition. Phase-bright images were taken using an Olympus 1X71 inverted microscope and were processed using an Olympus cellSens Dimension 1.15 Imaging Software.

[7] = tested on: MV4-11 cells; test: FACS of TKI-treated MV4-11 cells in vitro (viable blasts, Ki67, pBAD); assay type: cell-based, human; settings: 3 days after the treatment
Experimental: (§6) The AML cells were analyzed at different time points after exposure to TKI (3 days, 10 days, 20 days, and 28 days). […] After 3 days, FACS of the surface markers and intracellular proteins, including CD14, CD33, CD44, and Ki67, were performed. FIGS. 1A-1E depicts therapeutic effect of different TKIs on MV4-11 and MOLM-14 cells in vitro (N=6). […] The circles indicate the group of viable blasts located in a FACS plot and green arrows indicate the dying tendency of blasts which will become positive for viability dye during the next few days. FIGS. 1C and 1D are graphical representations of the cumulative FACS percentage data of viable MV4-11 and MOLM-14 cells. *P<0.05. […]
as §3, with “Cells were harvested and examined for the expression of cell surface biomarkers (CD) and intracellular proteins by multichromatic FACS as previously described.” left out, “Concentrations of the Abs were used per the manufacturers' recommendations.” left out, “Data was analyzed using the FlowJo software (Tree Star Inc., Ashland, OR).” left out

[8] = tested on: MOLM-14 cells; test: FACS of TKI-treated MOLM-14 cells in vitro (viable blasts, pBAD); assay type: cell-based, human; settings: 3 days after the treatment
Experimental: as §6
as §3, with “Cells were harvested and examined for the expression of cell surface biomarkers (CD) and intracellular proteins by multichromatic FACS as previously described.” left out, “Concentrations of the Abs were used per the manufacturers' recommendations.” left out, “Data was analyzed using the FlowJo software (Tree Star Inc., Ashland, OR).” left out

[9] = tested on: RAW264.7 (a macrophage cell line); test: Recombinant human MIF added to RAW264.7 cultures (FACS Ki67); assay type: cell-based; settings: 5 ng/ml MIF; 2 days
Experimental: To examine the role of MIF in the proliferation of AML blasts, different doses of recombinant human MIF peptides were added to the cell cultures of MV4-11 (AML blast cell line). […] To investigate how MIF affects immune cells, MIF was tested on RAW264.7 (a macrophage cell line). […] The findings are consistent with a previous report that primary AML blasts constitutively express MIF, stimulating bone marrow mesenchymal cells to release CXCL8 (IL-8), a ligand that also binds to CXCR2, to sustain blasts' proliferation. In addition, CXCL1/5/8 were routinely and highly released (a median level >1000 pg/mL) in the supernatants of culturing naïve AML patient cells ex vivo. […]
as §3, with “Cells were harvested and examined for the expression of cell surface biomarkers (CD) and intracellular proteins by multichromatic FACS as previously described.” left out, “Concentrations of the Abs were used per the manufacturers' recommendations.” left out, “Data was analyzed using the FlowJo software (Tree Star Inc., Ashland, OR).” left out

[10] = tested on: MV4-11 cells; test: Recombinant human MIF added to MV4-11 cultures (FACS Ki67, qPCR); assay type: cell-based
Experimental: To examine the role of MIF in the proliferation of AML blasts, different doses of recombinant human MIF peptides were added to the cell cultures of MV4-11 (AML blast cell line). […] To investigate how MIF affects immune cells, MIF was tested on RAW264.7 (a macrophage cell line). […] The findings are consistent with a previous report that primary AML blasts constitutively express MIF, stimulating bone marrow mesenchymal cells to release CXCL8 (IL-8), a ligand that also binds to CXCR2, to sustain blasts' proliferation. In addition, CXCL1/5/8 were routinely and highly released (a median level >1000 pg/mL) in the supernatants of culturing naïve AML patient cells ex vivo.
For MIF in vitro experiments, different doses of MIF were added to 1 ml of 1×10^6 MV4-11 cells or RAW264.7 cells for each experimental group in 24-well plates. Two days after the one dose treatment, cells were then collected for either analyses by FACS and qPCR. […]
as §3, with “Cells were harvested and examined for the expression of cell surface biomarkers (CD) and intracellular proteins by multichromatic FACS as previously described.” left out, “Concentrations of the Abs were used per the manufacturers' recommendations.” left out
RNA Isolation and Real-Time Polymerase Chain Reaction (qPCR) analysis. […] With an Applied Biosystems 7900HT Real-Time PCR machine, qPCR was performed and analyzed using known primers for the specific markers. […] The relative expression level of a gene was determined using the ΔΔCt method and normalized to GAPDH.

[11] = primary BMMNC ex vivo (Patient #2 and #3), 50 uM CXCR2-I
[12] = MV4-11, 10 days after TKI treatment
[13] = MV4-11, 20 days after TKI treatment
[14] = MV4-11, 28 days after TKI treatment
[15] = newly diagnosed AML, Patient #5, 50 uM BAY11-7821

O=C(Nc1ccc([N+](=O)[O-])cc1O)Nc1ccccc1Br [CXCR2-I, SB225002]
percentage of Ki67+CD44+ blasts ([1]; MV4-11, 80 nM GILT, 50 uM SB225002, 3 days): 5.7%
most effective dose on MV4-11 based on the FACS analyses [1]: 50 µM
percentage of Ki67+CD13+ blasts [2, 11]: 14.3%
percentage of viable CD33+CD13+ primary blasts [2, 11]: 3.11%

CO[C@@H]1[C@H](N(C)C(=O)c2ccccc2)C[C@H]2O[C@]1(C)n1c3ccccc3c3c4c(c5c6ccccc6n2c5c31)C(=O)NC4 [MIDO, Midostaurin]
reduction of viable MV4-11 [3]: 60%
population of viable CD44+pBAD+ cells [4, 12]: 0.2%
population of viable Ki67+CD33+CD44+ cells [4, 12]: 2.54%
population of viable CD44+pBAD+ cells [4, 13]: 0.43%
population of viable Ki67+CD33+CD44+ cells [4, 13]: 1.41%
population of viable CD44+pBAD+ cells [4, 14]: 1.23%
population of viable Ki67+CD33+CD44+ cells [4, 14]: 2.54%

Cc1ccc(S(=O)(=O)C=CC#N)cc1 [NFκB-I, BAY11-7082 (BAY11-7821)]
most effective dose on MV4-11 based on the FACS analyses [1]: 50 µM
percentage of Ki67+CD33+ proliferating blasts [2, 15]: 25%
percentage of viable CD33+CD13+ primary blasts [2, 15]: 0.14%

CNC(=O)c1cc(Oc2ccc(NC(=O)Nc3ccc(Cl)c(C(F)(F)F)c3)cc2)ccn1 [SORA, Sorafenib]
re-growth / tumorigenic clusters of MOLM-14 [5]: grew confluent
newly formed blast clusters (morphology) ([6]; 3 days after TKI treatment): observed
re-growth / tumorigenic clusters of MV4-11 ([6]; 10 days after TKI treatment): grew confluent
apoptosis and cell cycle arrest in MV4-11 ([3]; 72-hour treatment in vitro): significantly induce
population of viable CD44+pBAD+ cells [4, 12]: 0.24%
population of viable Ki67+CD33+CD44+ cells [4, 12]: 2.54%
population of viable CD44+pBAD+ cells [4, 13]: 0.8%
population of viable Ki67+CD33+CD44+ cells [4, 13]: 1.62%
population of viable Ki67+CD33+CD44+ cells [4, 14]: 2.82%
pBAD expression in MV4-11 (FACS) [7]: significant increase
pBAD expression in MOLM-14 (FACS) [8]: significant increase

B1: MIF: recombinant human macrophage migration inhibitory factor (Peprotech 300-69) (protein, UniProt P14174 2-115, looked up)
Macrophage migration …: PMFIVNTNVPRASVPDGFLSELTQQLAQATGKPPQYIAVHVVPDQLMAFGGSSEPCALCSLHSIGKIGGAQNRSYSKLLCGLLAERLRISPDRVYINYYDMNAANVGWNNSTFA
RAW264.7 proliferation (Ki67) [9]: effectively suppressed
MV4-11 proliferation (percentage of Ki67+) ([10]; 5 ng/ml MIF, the lowest dose, 2 days): induce MV4-11's proliferation
gene expressions of CXCL1, CXCL5, CXCL8 (IL-8), CDK4 and CYCLIN E1 ([10]; MV4-11, different doses of MIF, qPCR): effectively induce
CXCR2 expression in MV4-11 blasts ([10]; exogenous recombinant MIF in vitro): effectively induced
